Test results: ChEMBL document CHEMBL4421717, “Antagonists and agonists of bitter taste receptors and uses thereof” (2012)
Active and inactive are the calls of the source. The calls are words filed in the database; no cut-off is given here.

Legend:
Type in all cases: functional, cell-based
[1] = target: T1, Taste receptor type 2 member 1 (Homo sapiens) (UniProt Q9NYW7); experiment: Activity at recombinant human N-terminal rat ST3 receptor-fused TAS2R1 expressed in HEK293T cells co-expressing Galpha16gust44 assessed as effect on trans-isocohumulone-induced intracellular calcium level at 100 uM by FLIPR assay
T1 sequence (whole entry): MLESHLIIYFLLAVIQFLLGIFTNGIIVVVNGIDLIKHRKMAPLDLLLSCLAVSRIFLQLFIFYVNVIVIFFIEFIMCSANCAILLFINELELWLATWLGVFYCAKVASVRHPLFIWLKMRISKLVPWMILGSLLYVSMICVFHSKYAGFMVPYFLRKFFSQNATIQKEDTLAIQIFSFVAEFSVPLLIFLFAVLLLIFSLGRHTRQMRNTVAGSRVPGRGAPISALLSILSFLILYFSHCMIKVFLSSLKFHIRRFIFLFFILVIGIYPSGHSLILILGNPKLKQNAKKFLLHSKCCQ

[2] = target: T2, Taste receptor type 2 member 13 (Homo sapiens) (UniProt Q9NYV9); experiment: Activity at recombinant human N-terminal rat ST3 receptor-fused TAS2R13 expressed in HEK293T cells co-expressing Galpha16gust44 assessed as effect on denatonium benzoate-induced intracellular calcium level at 100 uM by FLIPR assay
T2 sequence (whole entry): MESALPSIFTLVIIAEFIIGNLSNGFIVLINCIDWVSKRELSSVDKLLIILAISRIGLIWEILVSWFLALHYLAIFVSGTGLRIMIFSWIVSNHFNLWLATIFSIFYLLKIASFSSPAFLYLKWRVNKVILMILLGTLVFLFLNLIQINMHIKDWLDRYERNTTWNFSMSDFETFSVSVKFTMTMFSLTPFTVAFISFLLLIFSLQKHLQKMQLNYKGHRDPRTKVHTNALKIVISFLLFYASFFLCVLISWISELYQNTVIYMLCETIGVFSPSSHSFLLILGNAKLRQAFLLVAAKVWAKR

[3] = target: T3, Taste receptor type 2 member 10 (Homo sapiens) (UniProt Q9NYW0); experiment: Agonist activity at recombinant human N-terminal rat ST3 receptor-fused TAS2R10 expressed in HEK293T cells co-expressing Galpha16gust44 assessed as effect on intracellular calcium level at 100 uM by FLIPR assay
T3 sequence (whole entry): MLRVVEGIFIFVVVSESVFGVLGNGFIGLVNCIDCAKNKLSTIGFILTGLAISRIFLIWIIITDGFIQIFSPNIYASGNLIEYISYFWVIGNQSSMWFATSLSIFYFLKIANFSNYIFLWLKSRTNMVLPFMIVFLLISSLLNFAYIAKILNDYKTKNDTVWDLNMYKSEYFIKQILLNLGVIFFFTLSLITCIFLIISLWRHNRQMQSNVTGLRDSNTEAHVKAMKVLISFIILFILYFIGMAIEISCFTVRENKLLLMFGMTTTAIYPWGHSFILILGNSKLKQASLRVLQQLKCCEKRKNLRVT

[4] = target: T4, Taste receptor type 2 member 4 (Homo sapiens) (UniProt Q9NYW5); experiment: Activity at recombinant human N-terminal rat ST3 receptor-fused TAS2R4 expressed in HEK293T cells co-expressing Galpha16gust44 assessed as effect on colchicine-induced intracellular calcium level at 100 uM by FLIPR assay
T4 sequence (whole entry): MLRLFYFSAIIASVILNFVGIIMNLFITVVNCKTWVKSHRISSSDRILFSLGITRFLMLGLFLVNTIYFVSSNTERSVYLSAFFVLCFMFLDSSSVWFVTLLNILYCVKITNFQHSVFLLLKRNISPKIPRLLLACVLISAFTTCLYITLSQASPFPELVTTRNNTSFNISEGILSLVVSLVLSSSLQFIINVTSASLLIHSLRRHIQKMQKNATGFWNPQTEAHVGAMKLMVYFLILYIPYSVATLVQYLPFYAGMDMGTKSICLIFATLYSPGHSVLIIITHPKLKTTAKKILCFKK

[5] = target: T3, Taste receptor type 2 member 10 (Homo sapiens); experiment: Activity at recombinant human N-terminal rat ST3 receptor-fused TAS2R10 expressed in HEK293T cells co-expressing Galpha16gust44 assessed as effect on strychnine-induced intracellular calcium level at 100 uM by FLIPR assay
[6] = target: T5, Taste receptor type 2 member 43 (Homo sapiens) (UniProt P59537); experiment: Antagonist activity at recombinant human N-terminal rat ST3 receptor-fused TAS2R43 expressed in HEK293T cells co-expressing Galpha16gust44 assessed as reduction in aristolochic acids-induced intracellular calcium level at 100 uM by FLIPR assay
T5 sequence (whole entry): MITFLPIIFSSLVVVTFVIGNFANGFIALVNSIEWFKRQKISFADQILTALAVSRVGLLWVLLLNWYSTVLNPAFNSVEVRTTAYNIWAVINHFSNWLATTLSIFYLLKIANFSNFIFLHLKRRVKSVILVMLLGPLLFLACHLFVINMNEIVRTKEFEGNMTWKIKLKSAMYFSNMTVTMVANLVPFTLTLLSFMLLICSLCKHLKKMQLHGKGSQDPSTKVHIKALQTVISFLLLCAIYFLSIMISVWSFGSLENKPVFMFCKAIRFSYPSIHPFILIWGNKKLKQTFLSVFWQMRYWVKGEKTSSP

[7] = target: T6, Taste receptor type 2 member 16 (Homo sapiens) (UniProt Q9NYV7); experiment: Agonist activity at recombinant human N-terminal rat ST3 receptor-fused TAS2R16 expressed in HEK293T cells co-expressing Galpha16gust44 assessed as effect on intracellular calcium level at 100 uM by FLIPR assay
T6 sequence (whole entry): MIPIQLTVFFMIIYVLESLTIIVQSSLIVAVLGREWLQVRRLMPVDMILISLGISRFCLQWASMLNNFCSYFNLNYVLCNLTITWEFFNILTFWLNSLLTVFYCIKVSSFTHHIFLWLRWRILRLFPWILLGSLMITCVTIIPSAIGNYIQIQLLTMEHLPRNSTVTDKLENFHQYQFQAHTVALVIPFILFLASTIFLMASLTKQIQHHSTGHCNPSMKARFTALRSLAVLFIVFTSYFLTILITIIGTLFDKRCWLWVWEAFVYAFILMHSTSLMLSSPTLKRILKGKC

[8] = target: T7, Taste receptor type 2 member 3 (Homo sapiens) (UniProt Q9NYW6); experiment: Agonist activity at recombinant human N-terminal rat ST3 receptor-fused TAS2R3 expressed in HEK293T cells co-expressing Galpha16gust44 assessed as effect on intracellular calcium level at 100 uM by FLIPR assay
T7 sequence (whole entry): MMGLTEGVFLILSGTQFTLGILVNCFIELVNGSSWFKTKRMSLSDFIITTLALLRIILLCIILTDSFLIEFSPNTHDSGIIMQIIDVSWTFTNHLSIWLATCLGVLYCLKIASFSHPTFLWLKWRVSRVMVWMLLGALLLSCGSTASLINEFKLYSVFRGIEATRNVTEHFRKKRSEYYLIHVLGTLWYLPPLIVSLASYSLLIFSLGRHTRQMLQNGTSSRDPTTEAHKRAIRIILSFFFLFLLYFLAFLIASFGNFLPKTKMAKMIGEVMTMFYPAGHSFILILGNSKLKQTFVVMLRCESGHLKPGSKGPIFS

In the case of `C/C1=C\C[C@H](O)[C@@H](C)C[C@H]2OC(=O)[C@@H](C)C2CC1` (some centres undefined), the Activity [1] is reported as “inactive”, the Activity [2] is reported as “inactive” and the Activity [3] is reported as “Active”. For the same molecule, the Activity [4] was “inactive”, the Activity [5] was “inactive” and the inhibition [6] was 100%.
`C/C1=C\C[C@H](O)/C(C)=C/[C@H]2OC(=O)[C@@H](C)C2CC1` (some centres undefined) was tested, and the Activity [1] was “inactive”, the Activity [2] was “inactive” and the Activity [3] was “Active”. For the same molecule, the Activity [4] was “inactive”, the Activity [7] was “inactive” and the Activity [8] was “inactive”. For the same molecule, the Activity [5] was “inactive” and the inhibition [6] was “Active”.
